# Experimental data: patent publication US20190167771A1, “CONTROL ANGIOGENESIS BY REGULATING PHOSPHORYLATION OF SERYL-tRNA SYNTHETASE (SerRS)” (The Scripps Research Institute, priority 2016, published 2019)
# Legend:
# [1] = system: ATM/ATR kinases; assay: Phosphorylation of exogenously expressed Flag-tagged SerRS in hypoxic HEK293 cells (IP/IB with anti-P-SQ); type: cell-based, human; conditions: hypoxia 12 hours
# [2] = system: SerRS binding site on human VEGFA promoter; assay: EMSA with 32P-labeled 27-bp DNA fragment of the VEGFA promoter; conditions: recombinant protein
# [3] = system: VEGFA promoter; assay: Chromatin immunoprecipitation (ChIP) on VEGFA promoter in HEK293 cells; type: cell-based, human; conditions: ChIP and qPCR
# Method: (§1) In FIG. 2A, wild type SerRS (SerRS^WT), its mutants with double substitutions of serine 101 and 241 with alanine or aspartic acid residues (SerRS^S101A/S241A and SerRS^S101D/S241D), or empty vector were transfected into HEK293 cells. The expression levels of SerRS proteins was measured by immunoblot (bottom) and VEGFA expression was determined by qRT-PCR (means±SEM from three independent experiments; ***P<0.0001). […] At 3 day post fertilization (dpf), embryos were harvested and Vegfa expression levels were measured by qRT-PCR (means±SEM, n=125-211; *P<0.01, **P<0.001) (B). The development of intersegmental vessel (ISV) at 3 dpf was examined (C) and the statistics of ISV abnormal branching rescued by SerRS^WT or mutant SerRS mRNA injections was analyzed (D; χ^2-test,* P>0.05 vs SerRS^WT, **P>0.1 vs SerRS-MO, ***P<1×10^−28 vs control-MO). […] In FIG. 2G, the binding of endogenous SerRS on VEGFA promoter during hypoxia course was monitored by ChIP (means±SEM from three independent experiments; *P<0.05, **P<0.005 vs normal).
# Cells were fixed with formaldehyde (1% final concentration) for 10 min at room temperature. […] After 3 washes, ChIPed DNA was analyzed on the StepOnePlus Real-Time PCR system using SYBR Select Master Mix (Applied Biosystems). […]
# [4] = system: VEGFA; assay: VEGFA expression by qRT-PCR in HEK293 cells transfected with SerRS constructs; type: cell-based, human; conditions: HEK293 cells transfected with construct
# Method: as §1, with “normal). […]” for “normal).”
# HEK293 cells were transfected with wild type (WT) SerRS or SerRS mutants. […] At 24 hours post-transfection, cells were harvested and VEGFA expression levels were measured by qRT-PCR and relative VEGFA transcription were plotted after being normalized to 1-actin (means±: SEM).
direct binding to 27-bp DNA fragment from the VEGFA promoter [2],Substance,phosphorylation of exogenously expressed SerRS [1],binding on VEGFA promoter [3],repression of VEGFA transcription [4]
–,"SerRS^S101A/S241A: phosphorylation-deficient human SerRS double mutant, serine 101 and 241 to alanine, SEQ ID NO: 4 (mouse version in matrigel assay)",much weaker phosphorylation than wild type SerRS,–,–
attenuated,"SerRS^S101D/S241D: SerRS with double substitutions of S101 and S241 with aspartic acid, mimics the phosphorylated SerRS",–,decreased binding on VEGFA promoter,can no longer repress VEGFA transcription
